Measured values reported in patent US20220170930A1, “METHOD FOR SCREENING COMPOUND FOR TREATING OR PREVENTING POLYQ-RELATED NEURODEGENERATIVE DISEASES” (FUDAN UNIVERSITY, priority 2019, published 2022).

Assays:
[1] = molecular target: T1, flHTT-Q73 (Homo sapiens, UniProt P42858, INS38QQQQQQQQQQQQQQQQQQQQQQQQQQQQQQQQQQQQQQQQQQQQQQQQQQQQ); assay: MST affinity with flHTT-Q73; type: binding; details: MST, flHTT-Q73, protein 500 nM; read-out: Kd
T1 construct: LC3B, full-length mHTT (flHTT-Q73) and full-length HTT-Q23 (flHTT-Q23); protein A (N, cleaved yes); made in house; host or cells: human embryonic kidney E293 cells

[2] = molecular target: Q38-GFP; assay: OI-RD affinity reaction parameters with Q38-GFP; type: binding
Excerpt: (§1) (1) PolyQ-GFP cDNA sequence (expressing Met-polyQ-GFP, wherein polyQ was Q72 or Q25) was synthesized de novo and subcloned into pcDNA vector. […] And the same method was used to obtain cells expressing Q53-GFP, cells expressing Q46-GFP, and cells expressing Q38-GFP.

[3] = molecular target: T2, wtHTT (Mus musculus, UniProt P42859); assay: Western-blot wtHTT level in primary cultured cortical neurons; type: cell-based; details: Hdh^Q7/Q7 cortical neurons, 2 days
T2 construct: endogenous in cells; host or cells: primary cortical neurons of newborn Hdh Q140/Q7 and Hdh Q7/Q7 mice
T2 sequence (P42859 whole entry): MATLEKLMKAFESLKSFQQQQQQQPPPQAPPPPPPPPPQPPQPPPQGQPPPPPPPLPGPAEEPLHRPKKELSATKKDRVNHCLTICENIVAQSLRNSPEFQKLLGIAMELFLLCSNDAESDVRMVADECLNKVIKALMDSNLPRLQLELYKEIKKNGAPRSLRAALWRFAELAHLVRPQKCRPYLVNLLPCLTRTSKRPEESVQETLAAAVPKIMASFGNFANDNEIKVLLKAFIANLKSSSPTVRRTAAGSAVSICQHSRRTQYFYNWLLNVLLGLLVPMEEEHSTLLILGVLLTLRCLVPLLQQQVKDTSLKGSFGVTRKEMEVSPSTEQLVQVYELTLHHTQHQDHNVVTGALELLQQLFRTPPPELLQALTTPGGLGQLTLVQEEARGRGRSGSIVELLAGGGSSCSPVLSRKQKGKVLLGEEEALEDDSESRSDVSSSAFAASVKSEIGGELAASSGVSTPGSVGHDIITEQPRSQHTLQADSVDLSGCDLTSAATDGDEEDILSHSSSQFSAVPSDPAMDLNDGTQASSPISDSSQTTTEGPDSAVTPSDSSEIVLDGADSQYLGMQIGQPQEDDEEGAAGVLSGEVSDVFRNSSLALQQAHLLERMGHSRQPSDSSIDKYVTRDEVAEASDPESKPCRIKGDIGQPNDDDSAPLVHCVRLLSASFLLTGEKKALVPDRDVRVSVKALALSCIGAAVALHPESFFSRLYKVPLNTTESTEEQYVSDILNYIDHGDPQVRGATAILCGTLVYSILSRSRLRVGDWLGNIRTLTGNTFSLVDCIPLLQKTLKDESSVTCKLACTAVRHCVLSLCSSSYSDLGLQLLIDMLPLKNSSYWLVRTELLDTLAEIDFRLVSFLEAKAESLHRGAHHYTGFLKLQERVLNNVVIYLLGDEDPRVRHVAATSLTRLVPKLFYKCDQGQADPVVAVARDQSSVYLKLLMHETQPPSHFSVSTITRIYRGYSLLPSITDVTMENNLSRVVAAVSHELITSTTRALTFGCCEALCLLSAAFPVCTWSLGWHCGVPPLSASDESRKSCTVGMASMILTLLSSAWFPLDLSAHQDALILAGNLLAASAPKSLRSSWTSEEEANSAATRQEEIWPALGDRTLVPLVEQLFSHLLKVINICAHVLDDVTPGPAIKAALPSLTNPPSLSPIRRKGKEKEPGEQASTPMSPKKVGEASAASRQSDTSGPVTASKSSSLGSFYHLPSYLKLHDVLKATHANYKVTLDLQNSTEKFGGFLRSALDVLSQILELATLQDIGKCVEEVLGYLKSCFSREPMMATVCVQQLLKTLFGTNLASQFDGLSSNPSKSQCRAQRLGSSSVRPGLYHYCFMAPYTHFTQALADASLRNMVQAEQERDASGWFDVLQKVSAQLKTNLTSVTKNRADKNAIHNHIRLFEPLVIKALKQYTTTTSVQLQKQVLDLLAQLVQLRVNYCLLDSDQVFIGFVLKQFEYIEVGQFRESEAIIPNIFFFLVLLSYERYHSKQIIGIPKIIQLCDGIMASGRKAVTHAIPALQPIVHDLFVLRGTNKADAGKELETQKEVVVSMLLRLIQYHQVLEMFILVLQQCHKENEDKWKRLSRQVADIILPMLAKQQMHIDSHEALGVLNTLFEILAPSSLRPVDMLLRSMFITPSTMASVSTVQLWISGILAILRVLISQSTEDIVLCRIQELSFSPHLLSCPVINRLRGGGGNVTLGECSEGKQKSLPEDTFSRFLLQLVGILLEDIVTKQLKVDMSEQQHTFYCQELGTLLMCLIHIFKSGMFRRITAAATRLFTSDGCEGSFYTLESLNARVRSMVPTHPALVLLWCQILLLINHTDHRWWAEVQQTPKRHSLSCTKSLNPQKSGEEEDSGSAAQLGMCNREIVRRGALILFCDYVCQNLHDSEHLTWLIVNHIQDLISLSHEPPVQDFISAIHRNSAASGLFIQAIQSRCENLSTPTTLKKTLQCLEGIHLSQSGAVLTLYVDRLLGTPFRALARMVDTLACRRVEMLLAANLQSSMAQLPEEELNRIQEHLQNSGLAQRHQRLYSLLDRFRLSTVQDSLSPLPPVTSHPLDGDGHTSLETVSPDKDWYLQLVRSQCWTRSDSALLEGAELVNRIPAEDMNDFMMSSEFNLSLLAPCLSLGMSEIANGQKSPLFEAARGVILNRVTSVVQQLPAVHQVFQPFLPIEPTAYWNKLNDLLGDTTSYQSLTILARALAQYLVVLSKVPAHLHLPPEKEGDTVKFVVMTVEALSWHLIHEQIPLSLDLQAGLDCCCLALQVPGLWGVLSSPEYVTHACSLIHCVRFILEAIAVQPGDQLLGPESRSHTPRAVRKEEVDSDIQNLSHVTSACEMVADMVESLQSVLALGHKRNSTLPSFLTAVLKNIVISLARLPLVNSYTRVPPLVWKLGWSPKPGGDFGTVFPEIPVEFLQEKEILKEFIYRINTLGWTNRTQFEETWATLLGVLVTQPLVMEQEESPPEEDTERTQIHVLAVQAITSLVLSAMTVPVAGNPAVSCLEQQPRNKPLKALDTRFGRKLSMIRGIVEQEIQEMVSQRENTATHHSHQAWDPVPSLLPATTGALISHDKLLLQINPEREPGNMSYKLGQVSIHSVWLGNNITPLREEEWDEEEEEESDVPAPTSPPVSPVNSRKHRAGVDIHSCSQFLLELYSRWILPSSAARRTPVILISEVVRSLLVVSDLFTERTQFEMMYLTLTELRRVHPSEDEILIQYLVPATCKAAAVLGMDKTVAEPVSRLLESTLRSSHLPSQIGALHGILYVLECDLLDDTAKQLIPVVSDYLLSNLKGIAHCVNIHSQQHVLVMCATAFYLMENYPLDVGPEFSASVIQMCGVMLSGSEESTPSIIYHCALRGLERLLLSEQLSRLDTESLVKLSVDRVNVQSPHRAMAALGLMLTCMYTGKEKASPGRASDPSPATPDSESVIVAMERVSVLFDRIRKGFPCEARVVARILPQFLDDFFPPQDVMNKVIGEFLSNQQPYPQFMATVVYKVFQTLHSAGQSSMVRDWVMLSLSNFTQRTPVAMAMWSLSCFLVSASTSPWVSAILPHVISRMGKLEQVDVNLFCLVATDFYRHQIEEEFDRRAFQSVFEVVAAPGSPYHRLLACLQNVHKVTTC
Method: (§2) Primary cultured cortical neurons: The brains of Hdh^Q140/Q7 and Hdh^Q7/Q7 newborn mice (P0) were dissected, digested, dissociated, and cultured.
(§3) (1) The primary cultured Hdh^Q140/Q7 and Hdh^Q7/Q7 mouse cortical neuron cells were treated with the compound for 2 days.

[4] = test system: mHTT; assay: Western-blot mHTT level in primary cultured cortical neurons; type: cell-based, mouse; details: 2 days
Method: as §2, §3

[5] = molecular target: T3, LC3B (Homo sapiens, UniProt Q9GZQ8); assay: OI-RD affinity with LC3B; type: binding
T3 construct: His8 (N, cleaved yes); GST (from pGEX-6P1) (N, cleaved yes); made in house; host or cells: E. coli BL21(DE3)pLsyS
Method: 01-RD images before and after incubation with the target protein was obtained following the method in (1).
(§4) The difference images of the above steps (1), (2), (3) (the image after incubation minus the image before incubation) was analyzed respectively.
Each compound was printed in triplicates on the microarray. 01-RD was used to measure the affinity reaction parameters of the compound with LC3B, full-length mHTT (flHTT-Q73) and full-length HTT-Q23 (flHTT-Q23).

[6] = test system: GFP; assay: OI-RD affinity screening with GFP; type: binding; details: OI-RD difference images
Method: To identify compound(s) that can selectively bind to proteins containing expanded polyglutamine, screening was conducted using a method similar to 1.1, except for that the target protein HTTexon1-Q72-MBP in step (1) of 1.1 was replaced with the polyQ-GFP protein prepared in 10.1, and the target protein HTTexon1-Q25-MBP in step (2) of 1.1 was replaced with GFP.

[7] = test system: Q25-GFP; assay: MST affinity with Q25-GFP
Method: (§8) The affinity of the compound with full-length HTT and LC3B was verified with micro thermophoresis (MST) using Monolith NT.115 instrument from NanoTemper Technologies. The reaction buffer was 20 mM HEPES, pH 7.4, 150 mM NaCl.

[8] = molecular target: T4, MBP-ATXN3-Q28 (Homo sapiens, UniProt P54252, INS305QQQQQQQQQQQQQQQQQQ); assay: OI-RD affinity screening with MBP-ATXN3-Q28; type: binding; details: OI-RD difference images
T4 construct: His8 with TEV protease cleavage site; made in house; host or cells: Escherichia coli Rosetta(DE3)pLsyS
T4 sequence (P54252 with tags, fused parts or gaps isoform P54252-4 with the stated changes): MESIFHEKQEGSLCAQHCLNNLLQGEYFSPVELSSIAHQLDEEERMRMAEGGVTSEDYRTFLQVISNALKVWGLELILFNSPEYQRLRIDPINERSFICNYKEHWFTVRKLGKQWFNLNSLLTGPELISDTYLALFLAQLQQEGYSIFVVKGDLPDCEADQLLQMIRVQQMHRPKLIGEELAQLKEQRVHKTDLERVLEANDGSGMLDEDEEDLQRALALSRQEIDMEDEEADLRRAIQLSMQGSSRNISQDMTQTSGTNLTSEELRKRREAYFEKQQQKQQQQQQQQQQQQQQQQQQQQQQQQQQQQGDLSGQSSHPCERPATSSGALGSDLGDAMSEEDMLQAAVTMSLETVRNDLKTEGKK
Method: (§5) Screening was conducted using a method similar to 1.1, except for that the target protein HTTexon1-Q72-MBP in step (1) of 1.1 was replaced with MBP-ATXN3-Q68 and the target protein HTTexon1-Q25-MBP in step (2) of 1.1 was replaced with MBP-ATXN3-Q28, to obtain compounds that can selectively bind to ATXN3 with abnormally expanded polyQ (MBP-ATXN3-Q68).

[9] = molecular target: T5, binding between HTTexon1-Q72-MBP and LC3B (Homo sapiens, UniProt P42858+Q9GZQ8, INS38QQQQQQQQQQQQQQQQQQQQQQQQQQQQQQQQQQQQQQQQQQQQQQQQQQQ); assay: In vitro pull-down HTTexon1-Q72-MBP and LC3B; type: biochemical; details: 1 μM compound 1 or 100 nM compound 4
T5 construct: His8 (N, cleaved yes); GST (from pGEX-6P1) (N, cleaved yes); made in house; LC3B: E. coli BL21(DE3)pLsyS
T5 sequence (P42858 other isoform, or with tags, fused parts or gaps with the stated changes): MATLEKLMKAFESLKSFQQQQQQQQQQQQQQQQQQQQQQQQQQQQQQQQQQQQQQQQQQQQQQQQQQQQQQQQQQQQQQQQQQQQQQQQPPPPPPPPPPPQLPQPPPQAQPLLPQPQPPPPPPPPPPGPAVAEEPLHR
Method: (§6) Incubation was conducted. Then the unbound proteins were removed.
(§7) (3) The resin-bound proteins were eluted and analyzed by SDS-PAGE and Western-blots with anti-LC3 antibody (FIG. 22a).

[10] = molecular target: MBP-ATXN3-Q68 (Homo sapiens, UniProt P54252, INS305QQQQQQQQQQQQQQQQQQQQQQQQQQQQQQQQQQQQQQQQQQQQQQQQQQQQQQQQQQ); assay: OI-RD affinity screening with MBP-ATXN3-Q68; type: binding; set-up: His8 with TEV protease cleavage site; made in house; host or cells: Escherichia coli Rosetta(DE3)pLsyS; details: OI-RD difference images
MBP-ATXN3-Q68, sequence (P54252 with tags, fused parts or gaps isoform P54252-4 with the stated changes): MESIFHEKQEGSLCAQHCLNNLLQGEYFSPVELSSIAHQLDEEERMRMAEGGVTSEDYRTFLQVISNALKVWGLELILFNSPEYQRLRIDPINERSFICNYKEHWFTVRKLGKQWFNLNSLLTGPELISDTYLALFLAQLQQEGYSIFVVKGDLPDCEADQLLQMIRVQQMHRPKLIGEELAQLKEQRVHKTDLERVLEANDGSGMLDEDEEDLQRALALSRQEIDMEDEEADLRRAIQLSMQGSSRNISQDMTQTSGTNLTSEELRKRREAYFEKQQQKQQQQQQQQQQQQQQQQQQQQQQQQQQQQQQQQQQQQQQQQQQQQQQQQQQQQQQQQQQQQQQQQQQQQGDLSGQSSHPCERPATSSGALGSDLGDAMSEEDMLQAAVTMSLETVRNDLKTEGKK
Method: as §5

[11] = molecular target: Q72-GFP; assay: MST affinity with Q72-GFP
Method: as §8

[12] = molecular target: T3, LC3B; assay: MST affinity with LC3B; type: binding; details: MST, LC3B, protein 500 nM; read-out: Kd
[13] = molecular target: T6, binding between HTTexon1-Q25-MBP and LC3B (Homo sapiens, UniProt Q9GZQ8); assay: In vitro pull-down HTTexon1-Q25-MBP and LC3B; type: biochemical; details: 1 μM compound 1 or 100 nM compound 4
T6 construct: His8 (N, cleaved yes); GST (from pGEX-6P1) (N, cleaved yes); made in house; LC3B: E. coli BL21(DE3)pLsyS
Method: as §6, §7

[14] = molecular target: T7, HTTexon1-Q72-MBP (Homo sapiens, UniProt P42858, INS38QQQQQQQQQQQQQQQQQQQQQQQQQQQQQQQQQQQQQQQQQQQQQQQQQQQ); assay: OI-RD affinity screening and affinity reaction parameters with HTTexon1-Q72; type: binding
T7 construct: made in house; host or cells: mammalian expression vector pTT5SH8Q2
T7 sequence (P42858 with tags, fused parts or gaps, stated change not applied): as the sequence (P42858 other isoform, or with tags, fused parts or gaps with the stated changes) above
Method: Each compound was printed in duplicate on the microarray. The compound not fixed on the surface of the chip was washed away. The chip was sealed and cleaned. 01-RD microscope was applied to scan the images. […] The chips are cleaned and scanned.
as §4
Each compound was printed in triplicates on the microarray. 01-RD was used to measure the affinity reaction parameters of compounds with HTTexon1-Q72 and HTTexon1-Q25.

[15] = in vivo; details: mouse, ip, 0.5 mg/kg
Method: Experimental method: The compound or control DMSO was diluted with 0.9% NaCl intravenous infusion solution to 0.05 μg/μL. One ip-injection (0.5 mg/kg) was conducted per day. After 14 days of injection, tissue extraction or behavioral experiment were conducted.

[16] = molecular target: Q72-GFP; assay: OI-RD affinity reaction parameters with Q72-GFP; type: binding
Excerpt: as §1

O=C1Nc2ccc(I)cc2/C1=C/c1cc(Br)c(O)c(Br)c1 [compound 1, GW5074]
Kd [1]: 3460 nM | Kd [2]: 1920 nM | Koff [2]: 0.000338 s⁻¹ | Kon [2]: 1.06e-05 min/nM | wtHTT levels [3]: did not reduce wtHTT levels | concentration range in which the effect of selectively reducing mHTT levels was observed [4]: 30 to 300 nM | preferred concentration for selectively reducing mHTT levels [4]: 100 nM | binding to LC3B ([5]; OI-RD difference images): can bind | Koff ([5]; OI-RD, LC3B): 0.00029 s⁻¹ | Kon ([5]; OI-RD, LC3B): 3.72e-05 min/nM | Kd ([5]; OI-RD, LC3B, read-out: Kd): 468 nM | binding to GFP [6]: did not bind | binding affinity to Q25-GFP [7]: no binding affinity | binding to MBP-ATXN3-Q28 [8]: did not bind | binding between HTTexon1-Q72-MBP and LC3B [9]: could enhance the binding | binding to MBP-ATXN3-Q68 [10]: binded | Kd [11]: 3000 nM | Kd [12]: 4760 nM | binding between HTTexon1-Q25-MBP and LC3B [13]: but not between HTTexon1-Q25-MBP and LC3B | binding to HTTexon1-Q72 ([14]; OI-RD difference images): can bind | Koff ([14]; OI-RD, HTTexon1-Q72): 0.000238 s⁻¹ | Kon ([14]; OI-RD, HTTexon1-Q72): 9.07e-05 min/nM | Kd ([14]; OI-RD, HTTexon1-Q72, read-out: Kd): 158 nM | concentration at 2 h [15]: 81 ng/g | Kd [16]: 180 nM | Koff [16]: 0.000252 s⁻¹ | Kon [16]: 8.37e-05 min/nM
